Measured values taken from US9388147B2 (Receptos, Inc., priority 2009, dated 2016).

Target: S1P1/EDG1 (Homo sapiens, UniProt P21453)
Assay: S1P1 CRE-bla CHOK1 reporter assay, inhibition of Forskolin induced cAMP
Format: cell-based
Conditions: agonist activity range, S1P1 CRE-bla CHOK1, 2 μM Forskolin; read-out: S1P1 ACTIVITY
Method: Generation of S1P1-Mediated Inhibition of cAMP Reporter Assay
A mammalian expression plasmid containing S1P1/EDG1 cloned into pcDNA3.1 was purchased from Missouri S&T cDNA Resource Centre. […] S1P1/pcDNA3.1 was transfected into the CRE-bla CHO K1 (Invitrogen) cell line, and stable single cell clones were selected using standard techniques.
S1P1 CRE-Bla CHOK1 Reporter Assay—Characterization of S1P1 Agonists
Cells were seeded into 384-well black wall/clear bottom plates at 10^4 cells/well/19.5 μl assay media (DMEM-phenol free, 0.5% charcoal/dextran stripped serum, 2 mM glutamine, 0.1 mM NEAA, 1 mM Na-Pyruvate, 25 mM Hepes) and incubated for 18 hrs at 37° C. in 5% CO2. Dose response curves (10-point) were generated in 10 mM Hepes, 0.1% Pluronic F127, in the presence of Forskolin. Cells were treated with 0.5 μl compound in the presence of 2 μM Forskolin for 4 hrs at 37° C. The FRET-based β-lactamase fluorescent substrate (LiveBLAzer™-FRET B/G Loading Kit CC4-AM; Invitrogen) was prepared according to manufacturer's directions, and incubated with cells for 2 hrs at room temperature. […] Data was analyzed by non-linear regression to determine the EC50 for inhibition of Forskolin induced cAMP.

S1P1/EDG1, sequence (P21453 whole entry): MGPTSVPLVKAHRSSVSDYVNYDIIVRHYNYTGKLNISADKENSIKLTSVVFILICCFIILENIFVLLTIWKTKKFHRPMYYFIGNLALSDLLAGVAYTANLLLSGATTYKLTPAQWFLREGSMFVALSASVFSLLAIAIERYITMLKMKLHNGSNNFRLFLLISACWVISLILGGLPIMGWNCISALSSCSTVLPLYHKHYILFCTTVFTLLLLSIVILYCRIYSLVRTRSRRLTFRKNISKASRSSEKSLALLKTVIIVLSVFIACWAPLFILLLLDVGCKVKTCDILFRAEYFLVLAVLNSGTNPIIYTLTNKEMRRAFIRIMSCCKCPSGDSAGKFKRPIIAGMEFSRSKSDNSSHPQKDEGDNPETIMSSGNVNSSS

Row | SMILES | EC50 [nM]
1 | COCC(=O)NC1CCc2c(-c3noc(-c4ccc(OC(C)C)c(C#N)c4)n3)cccc21 (racemic) [Compound 39] | 0.05 to 0.5
2 | CC(C)Oc1ccc(-c2nc(-c3cccc4c3CC[C@H]4N(CCO)S(=O)(=O)c3ccccc3)no2)cc1C#N [Compound 117] | > 5
3 | CC(C)Oc1ccc(-c2nc(-c3cccc4c3CC[C@H]4N(C)CC(=O)N(C)C)no2)cc1C#N [Compound 115] | 0.5 to 5
4 | CC(C)Oc1ccc(-c2nc(-c3cccc4c3CCC4N3CC[C@H](N)C3)no2)cc1C#N (mixture of isomers) [Compound 32] | 0.5 to 5
5 | CC(C)Oc1ccc(-c2nc(-c3cccc4c3CC[C@H]4NC(=O)N3CCC(CC(=O)O)CC3)no2)cc1C#N [Compound 228] | 0.5 to 5
6 | CC(C)Oc1ccc(-c2nc(-c3cccc4c3CC[C@H]4NS(=O)(=O)CC(=O)O)no2)cc1C#N [Compound 184, (R)-2 (N (4-(5-(3 cyano-4-isopropoxyphenyl)-1,2,4-oxadiazol-3-yl)-2,3-dihydro-1H-inden-1-yl)sulfamoyl)acetic acid] | < 0.05
7 | CC(C)Oc1ccc(-c2nc(-c3cccc4c3CC[C@@H]4NS(=O)(=O)CCN3CC[C@@H](O)C3)no2)cc1C#N [Compound 173] | 0.5 to 5
8 | CC(C)Oc1ccc(-c2nc(-c3cccc4c3CC[C@@H]4NC(=O)N3CCC(O)CC3)no2)cc1C#N [Compound 241] | 0.05 to 0.5
9 | CC(C)Oc1ccc(-c2nc(-c3cccc4c3CC[C@@H]4NS(=O)(=O)CCN(C)C)no2)cc1C#N [Compound 78, (S)-N-(4-(5-(3 cyano-4-isopropoxyphenyl)-1,2,4-oxadiazol-3-yl)-2,3-dihydro-1H-inden-1-yl)-2-(dimethylamino)ethanesulfonamide] | 0.5 to 5
10 | CC(C)Oc1ccc(-c2nc(-c3cccc4c3CC[C@@H]4NCc3ccccc3)no2)cc1C#N [Compound 157] | 0.5 to 5
11 | CC(C)Oc1ccc(-c2nc(-c3cccc4c3CC[C@H]4N(CCO)CCO)no2)cc1C#N [Compound 118] | 0.05 to 0.5
12 | CC(C)C(=O)Oc1ccc(-c2nc(-c3cccc4c3CCC4NCCO)no2)cc1C#N (racemic) [Compound 108] | > 5
13 | CC(C)Oc1ccc(-c2nc(-c3cccc4c3CC[C@@H]4N(C)CC(=O)O)no2)cc1C#N [Compound 208] | 0.05 to 0.5
14 | CC(C)Oc1ccc(-c2nc(-c3cccc4c3CC[C@@H]4NC(=O)N3CC[C@H](N)C3)no2)cc1C#N [Compound 224] | 0.5 to 5
15 | CC(C)Oc1ccc(-c2nc(-c3cccc4c3CC[C@H]4NC(=O)CN(C)C)no2)cc1C#N [Compound 67] | 0.05 to 0.5
16 | CC(C)Oc1ccc(-c2nc(-c3cccc4c3CC[C@H]4N)no2)cc1Cl [Compound 95, (R)-4-(5-(3-chloro-4-isopropoxyphenyl)-1,2,4-oxadiazol-3-yl)-2,3-dihydro-1H-inden-1-amine] | > 5
17 | CC(C)Oc1ccc(-c2nc(-c3cccc4c3CC[C@@H]4NC(=O)N3CCC(C(=O)O)CC3)no2)cc1C#N [Compound 239] | 0.05 to 0.5
18 | CN[C@H]1CCc2c(-c3noc(-c4ccc(OC(C)C)c(C#N)c4)n3)cccc21 [Compound 105] | 0.05 to 0.5
19 | CC(C)Oc1ccc(-c2nc(-c3cccc4c3CC[C@@H]4NS(=O)(=O)C3CC3)no2)cc1C#N [Compound 167] | 0.05 to 0.5

Row | SMILES | EC50 [nM]
20 | CC(C)Oc1ccc(-c2nc(-c3cccc4c3CC[C@@H]4NCC(F)F)no2)cc1C#N [Compound 141] | 0.05 to 0.5
21 | CC(C)Oc1ccc(-c2nc(-c3cccc4c3CC[C@@H]4NS(=O)(=O)CC(=O)N3CC(O)C3)no2)cc1C#N [Compound 189] | 0.05 to 0.5
22 | CNC(=O)CN[C@@H]1CCc2c(-c3noc(-c4ccc(OC(C)C)c(C#N)c4)n3)cccc21 [Compound 52] | 0.05 to 0.5
23 | CC(C)Oc1ccc(-c2nc(-c3cccc4c3CC[C@H]4NCC(=O)N3CC[C@@H](O)C3)no2)cc1C#N [Compound 133] | 0.05 to 0.5
24 | CC(C)Oc1ccc(-c2nc(-c3cccc4c3CCC4NC3CCOCC3)no2)cc1C#N (racemic) [Compound 23] | 0.5 to 5
25 | CC(C)Oc1ccc(-c2nc(-c3cccc4c3CCC4NCCS(C)(=O)=O)no2)cc1C#N (racemic) [Compound 44] | 0.05 to 0.5
26 | CC(C)Oc1ccc(-c2nc(-c3cccc4c3CC[C@H]4NC(=O)N3CCC(N(C)C)CC3)no2)cc1C#N [Compound 246] | > 5
27 | CC(C)Oc1ccc(-c2nc(-c3cccc4c3CC[C@H]4NC(=O)N3CCC(CO)CC3)no2)cc1C#N [Compound 217] | 0.5 to 5
28 | CC(C)Oc1ccc(-c2nc(-c3cccc4c3CC[C@@H]4NS(=O)(=O)CC(=O)N3CCC(O)CC3)no2)cc1C#N [Compound 193] | 0.05 to 0.5
29 | CC(C)Oc1ccc(-c2nc(-c3cccc4c3CC[C@@H]4NC(=O)CN(C)C)no2)cc1C#N [Compound 136] | 0.05 to 0.5
30 | N#Cc1cc(-c2nc(-c3cccc4c3CCC4NCCO)no2)ccc1OCC(=O)O (racemic) [Compound 109] | > 5
31 | CC(C)Oc1ccc(-c2nc(-c3cccc4c3CCC4N3CC(C(=O)O)C3)no2)cc1C#N (racemic) [Compound 18, 1-(4-(5-(3-cyano-4-isopropoxyphenyl)-1,2,4-oxadiazol-3-yl)-2,3-dihydro-1H-inden-1-yl)azetidine-3-carboxylic acid] | < 0.05
32 | CC(C)Oc1ccc(-c2nc(-c3cccc4c3CC[C@H]4N)no2)cc1S(C)(=O)=O [Compound 252] | 0.5 to 5
33 | CC(C)Oc1ccc(-c2nc(-c3cccc4c3CCC4N[C@@H](C)c3ccccc3)no2)cc1C#N (stereo in doubt) [Compound 123] | > 5
34 | CC(C)Oc1ccc(-c2nc(-c3cccc4c3CC[C@@H]4NCc3cncs3)no2)cc1C#N [Compound 161] | 0.05 to 0.5
35 | CC(C)Oc1ccc(-c2nc(-c3cccc4c3CC[C@H]4NC(=O)N3CC[C@@H](N)C3)no2)cc1C#N [Compound 221] | 0.05 to 0.5
36 | CC(C)Oc1ccc(-c2nc(-c3cccc4c3CC[C@@H]4NC(=O)OCCO)no2)cc1C#N [Compound 153] | 0.05 to 0.5
37 | CC(C)Oc1ccc(-c2nc(-c3cccc4c3CC[C@@H]4NS(N)(=O)=O)no2)cc1C#N [Compound 249] | < 0.05
38 | CNC(=O)CS(=O)(=O)N[C@H]1CCc2c(-c3noc(-c4ccc(OC(C)C)c(C#N)c4)n3)cccc21 [Compound 198] | 0.05 to 0.5

Row | SMILES | EC50 [nM]
39 | CCN(CCO)[C@@H]1CCc2c(-c3noc(-c4ccc(OC(C)C)c(C#N)c4)n3)cccc21 [Compound 114] | 0.05 to 0.5
40 | CC(C)Oc1ccc(-c2nc(-c3cccc4c3CC[C@@H]4NC(=O)N3CC[C@@H](N)C3)no2)cc1C#N [Compound 223] | 0.5 to 5
41 | CCOc1ccc(-c2nc(-c3cccc4c3CC[C@@H]4O)no2)cc1OCC [Compound 2] | 0.05 to 0.5
42 | CC(C)Oc1ccc(-c2nc(-c3cccc4c3CC[C@H]4NCC(C)(C)O)no2)cc1C#N [Compound 57] | 0.5 to 5
43 | CC(C)Oc1ccc(-c2nc(-c3cccc4c3CC[C@@H]4N3CCOC3=O)no2)cc1C#N [Compound 155] | 0.05 to 0.5
44 | COC(=O)C(C)(C)CS(=O)(=O)N[C@H]1CCc2c(-c3noc(-c4ccc(OC(C)C)c(C#N)c4)n3)cccc21 [Compound 183] | 0.5 to 5
45 | CC(C)Oc1ccc(-c2nc(-c3cccc4c3CC[C@@H]4O)no2)cc1C#N [Compound 6, (S)-5-(3-(1-hydroxy-2,3-dihydro-1H-inden-4-yl)-1,2,4-oxadiazol-5-yl)-2-isopropoxy-benzonitrile] | < 0.05
46 | CC(C)Oc1ccc(-c2nc(-c3cccc4c3CC[C@H]4NC(=O)N3CCC[C@@H](O)C3)no2)cc1C#N [Compound 219] | 0.5 to 5
47 | CC(C)Oc1ccc(-c2nc(-c3cccc4c3CC[C@H]4NS(=O)(=O)CCCO)no2)cc1C#N [Compound 188] | < 0.05
48 | CC(C)Oc1ccc(-c2nc(-c3cccc4c3CC[C@H]4NC(=O)CO)no2)cc1C#N [Compound 65, (R)-N-(4-(5-(3 cyano-4-isopropoxyphenyl)-1,2,4-oxadiazol-3-yl)-2,3-dihydro-1H-inden-1-yl)-2-hydroxyacetamide] | < 0.05
49 | CCOc1ccc(-c2nc(-c3cccc4c3CC[C@H]4N)no2)cc1C#N [Compound 94] | 0.5 to 5
50 | CC(C)Oc1ccc(-c2nc(-c3cccc4c3CC[C@H]4NS(=O)(=O)CCN3CCOCC3)no2)cc1C#N [Compound 176] | 0.5 to 5
51 | CC(C)Oc1ccc(-c2nc(-c3cccc4c3CC[C@H]4N3CCOC3=O)no2)cc1C#N [Compound 154, (R)-2-isopropoxy-5-(3-(1-(2-oxooxazolidin-3-yl)-2,3-dihydro-1H-inden-4-yl)-1,2,4-oxadiazol-5-yl)benzonitrile] | 0.05 to 0.5
52 | CC(C)Oc1ccc(-c2nc(-c3cccc4c3CC[C@H]4N3CC(C(=O)O)C3)no2)cc1C#N [Compound 202, (R)-1-(4-(5-(3-cyano-4-isopropoxyphenyl)-1,2,4-oxadiazol-3-yl)-2,3-dihydro-1H-inden-1-yl)azetidine-3-carboxylic acid] | < 0.05
53 | CC(C)Oc1ccc(-c2nc(-c3cccc4c3CC[C@H]4NCC(=O)N3CCCC3)no2)cc1C#N [Compound 129] | 0.05 to 0.5
54 | CC(C)Oc1ccc(-c2nc(-c3cccc4c3CC[C@H]4NCCO)no2)cc1Br [Compound 101] | 0.5 to 5
55 | CC(C)Oc1ccc(-c2nc(-c3cccc4c3CCC4NC[C@H](O)CO)no2)cc1C#N (mixture of isomers) [Compound 41] | 0.05 to 0.5
56 | CC(C)Oc1ccc(-c2nc(-c3cccc4c3CC[C@@H]4NCc3nc4ccccc4[nH]3)no2)cc1C#N [Compound 160] | 0.5 to 5
57 | CCOC(=O)N[C@H]1CCc2c(-c3noc(-c4ccc(OC(C)C)c(C#N)c4)n3)cccc21 [Compound 152] | 0.5 to 5
